According to ChEMBL document CHEMBL1122119:

What was measured:
[1] = biological target: T1, Adenylate cyclase (Rattus norvegicus) (UniProt D4A3N4+P26770+Q04400+P26769+Q03343+P40146+Q8CFM9+P21932); test: Ability (50 uM) to stimulate dopamine sensitive adenylate cyclase from rat corpus striatum in the presence of excess ATP; assay type: functional
[2] = biological target: T1, Adenylate cyclase (Rattus norvegicus); test: Ability (250 uM) to stimulate dopamine sensitive adenylate cyclase from rat corpus striatum in the presence of excess ATP; assay type: functional

Row | Structure (SMILES) | Cyclase stimulation [1] [%] | Cyclase stimulation [2] [%]
1 | NCCc1ccc(O)c(O)c1 | 58 | –
2 | CN1CCc2cc(O)cc3c2[C@H]1Cc1ccc(O)c(O)c1-3 | – | 59
3 | CN1CCc2cc(O)cc3c2[C@@H]1Cc1ccc(O)c(O)c1-3 | – | 9
4 | CN1CCc2cccc3c2[C@H]1Cc1ccc(O)c(O)c1-3 | 48 | –
